Experimental data taken from patent US7956086B2, “Methods for the formulation and manufacture of artesunic acid for injection” (priority 2006, dated 2011).

Experiments:
[1] = stored under nitrogen @ 25° C., studies at Knoll; cited from earlier work
[2] = in vivo
Source text: Patients were given a single dose of 1-4 milligrams per kilogram body weight in the form of an injection through an IV catheter (a tube with a needle attached) once a day for 3 days in a row.

[3] = Storage stability of bulk artesunic acid; format: physicochemical; conditions: 20 months at 25° C.
Experimental: Six thousand dry-filled vials of formulated artesunate for clinical use have been packaged. One thousand of the vials have been reserved for long-term stability testing under various conditions, including elevated temperatures and humidities, to test the integrity and durability of the packaging system. As packaged for clinical use, 20 ml vials have been dry-filled with 110 mg of ethylene oxide sterilized artesunate, stoppered, and sealed.
The sterilized bulk drug of the invention has been tested and is still undergoing stability studies. […] The stability studies are still ongoing.

SMILES: C[C@H]1[C@H](OC(=O)CCC(=O)O)O[C@@H]2O[C@@]3(C)CC[C@H]4[C@H](C)CC[C@@H]1[C@@]24OO3 (relative stereo) [artesunic acid, butanedioic Acid, [3R-(3α,5a,6,8a,9α,10α,12,12a R*)]-mono(decahydro-3,6,9-trimethyl-3,12-epoxy-12H-pyrano[4,3-j]-1,2-benzodioxepin-10-yl)ester]
- stability of bulk artesunic acid [1]: at least two years stability
- adverse effects [2]: no adverse effects
- degradation of sterilized bulk drug on storage [3]: no evidence of degradation
